{
  "source": "patent US20130210852A1",
  "about": "“METHODS FOR TREATING INFECTION” (priority 2010, published 2013)",
  "key": {"[1]": {"tested_on": "EAEC strain O42 adherence to HEp-2 cells", "format": "cell-based, human"}, "[2]": {"tested_on": "B. anthracis Sterne strain 7702 spores on A549 cells", "format": "cell-based, human", "settings": "A549 cells pretreated 24 h, spores 1 h"}, "[3]": {"tested_on": "EAEC", "settings": "previously established in the applicant's laboratory; cited from earlier work"}, "[4]": {"tested_on": "C difficile", "assay": "Susceptibility testing of C difficile isolates (rifaximin agar dilution, rifampin E strips)"}, "[5]": {"tested_on": "MMP-9 in EAEC isolates", "assay": "Matrix metalloproteinase-9 detection by gelatin zymography, EAEC", "format": "cell-based, Escherichia coli", "description": "(§1) Matrix Metalloproteinase-9 Detection Expression of matrix metalloproteinase-9 (MMP-9) was analyzed using gelatin zymography in all viable EAEC and S. sonnei isolates growing on MacConkey agar. Isolates were suspended in 1 mL of 0.1 M phosphate buffered saline (pH 7.2) and centrifuged at 1000 g for 10 minutes at 4° C. The supernatant was subjected to gelatin zymography to detect MMP-9 activity using a modified Heussen and Dowdle protocol (9). In summary, the supernatant was diluted 1:2 in a sample buffer (125 mM Tris-HCl, pH 6.8, 20% glycerol, 4% sodium dodecyl sulfate, 0.02% bromphenol blue), and 20 μL was loaded on to a 10% SDS-PAGE gel containing 1 mg/mL gelatin. Prestained standard proteins were used as molecular weight markers. After electrophoresis, gels were rinsed with incubation buffer (2.5% triton X-100, 50 mM Tris-HCl, pH 7.4, 0.02% Brij 35, 10 mM CaCl2, 2 μM ZnCl2) for 1 hour at room temperature to remove SDS. Gels were then incubated overnight at 37° C. and subsequently stained with Coomassie brilliant blue R-250 (Thermo Fisher Scientific, Inc, Rockford, Ill.). […] Matrix metalloproteinase-9 was identified among all gelatinolytic proteins by size."}, "[6]": {"tested_on": "EAEC strain O42 adherence to HEp-2 cells", "assay": "HEp-2 cell attachment assay (microscopy after Wright-Giemsa staining)", "format": "cell-based, human", "settings": "HEp-2 cells incubated 24 h with antibiotic, washed, then EAEC 3 h"}, "[7]": {"tested_on": "EAEC isolates", "assay": "Isolate viability after rifaximin exposure, EAEC"}, "[8]": {"tested_on": "MMP-9 in S sonnei isolate", "assay": "Matrix metalloproteinase-9 detection by gelatin zymography, S sonnei", "format": "cell-based, Shigella sonnei", "description": "as §1"}, "[9]": {"tested_on": "EAEC strain O42 adherence to HeLa cells", "format": "cell-based, human", "settings": "24 h pretreatment with 64 mg (FIG. 2: 64 μg/ml), EAEC 3 h"}, "[10]": {"tested_on": "EAEC strain O42 adherence to HCT-8 cells", "format": "cell-based, human", "settings": "24 h pretreatment with 64 mg (FIG. 2: 64 μg/ml), EAEC 3 h"}},
  "note": "Entries after “also recorded” stand apart in the source; their conditions may differ.",
  "data": [
    {"smiles": "CO[C@H]1/C=C/O[C@@]2(C)Oc3c(C)c(O)c4c(O)c(c5c(nc6cc(C)ccn65)c4c3C2=O)NC(=O)/C(C)=C\\C=C\\[C@H](C)[C@H](O)[C@@H](C)[C@@H](O)[C@@H](C)[C@H](OC(C)=O)[C@@H]1C", "note": "[Rifaximin, (2S,16Z,18E,20S,21S,22R,23R,24R,25S,26S,27S,28E)-5,6,21,23,25 Pentahydroxy-27-methoxy-2,4,11,16,20,22,24,26-octamethyl-2,7-(epoxypentadeca-(1,11,13)trienimino)benzofuro (4,5-e) pyrido(1,2,-a) benzimidazole-1,15(2H)-dione,25-acetate]", "values": [
      {"measurement": "EAEC adherence to HEp-2 cells (CFU, % of total bacteria added)", "setting": "[1]", "result": "significantly lower; also recorded: significantly reduced; also recorded: reduced EAEC adherence"},
      {"measurement": "EAEC bacterial counts in the supernatants", "setting": "[1]; HEp-2 cells pretreated 24 h, EAEC 3 h", "result": "No differences in bacterial counts"},
      {"measurement": "adherence of B. anthracis", "setting": "[2]", "result": "significant reductions"},
      {"measurement": "internalization of B. anthracis", "setting": "[2]; then gentamicin 100 μg/ml 1 h", "result": "significant reductions"},
      {"measurement": "MIC50 for EAEC", "setting": "[3]", "result": 64, "unit": "µg/mL"},
      {"measurement": "MIC50 against C difficile", "setting": "[4]; 359 isolates", "result": "<0.01", "unit": "µg/mL"},
      {"measurement": "MIC90 against C difficile", "setting": "[4]; 359 isolates", "result": 0.25, "unit": "µg/mL"},
      {"measurement": "MIC50 against C difficile", "setting": "[4]; 359 isolates, listed as rifaximin", "result": "< 0.01", "unit": "µg/mL"},
      {"measurement": "Isolates resistant to rifaximin alone (n = 11), (%)", "setting": "[4]; genotype A +, B +, BT +, tcdC-del +", "result": "(0) %"},
      {"measurement": "Isolates resistant to rifaximin alone (n = 11), (%)", "setting": "[4]; genotype A +, B +, BT +, tcdC-del −", "result": "(18) %"},
      {"measurement": "Isolates resistant to rifaximin alone (n = 11), (%)", "setting": "[4]; genotype A +, B +, BT −, tcdC-del +", "result": "(9) %"},
      {"measurement": "Isolates resistant to rifaximin alone (n = 11), (%)", "setting": "[4]; genotype A +, B +, BT −, tcdC-del −", "result": "(55) %"},
      {"measurement": "Isolates resistant to rifaximin alone (n = 11), (%)", "setting": "[4]; genotype A −, B −, BT −, tcdC-del −", "result": "(18) %"},
      {"measurement": "MMP-9 expression by EAEC isolates", "setting": "[5]; rifaximin 8 mg/L for 4 and 8 hours", "result": "expressed MMP-9"},
      {"measurement": "MMP-9 expression by EAEC isolates", "setting": "[5]; rifaximin 8 mg/L for 24 hours", "result": "undetectable"},
      {"measurement": "MMP-9 expression by EAEC isolates", "setting": "[5]; rifaximin 8 mg/L, 18-hour time point", "result": "one EAEC isolate produced MMP-9, but the other isolate did not"},
      {"measurement": "MMP-9 expression by EAEC isolates", "setting": "[5]; rifaximin 32 or 64 mg/L for 4, 8, or 18 hours", "result": "undetectable"},
      {"measurement": "EAEC O42 adherence to HEp-2 cells (microscopy)", "setting": "[6]", "result": "greatly reduced"},
      {"measurement": "EAEC viability after exposure", "setting": "[7]; rifaximin 8 mg/L for 24 hours", "result": "viable"},
      {"measurement": "EAEC viability after exposure", "setting": "[7]; rifaximin 8, 32, and 64 mg/L at 4, 8, and 18 hours", "result": "viable"},
      {"measurement": "EAEC viability after exposure", "setting": "[7]; rifaximin 32 and 64 mg/L for 24 hours", "result": "no viable isolates were recovered"},
      {"measurement": "MMP-9 in the S sonnei isolate", "setting": "[8]; other time points and rifaximin concentrations", "result": "either undetectable or the isolate was not viable"},
      {"measurement": "MMP-9 in the S sonnei isolate", "setting": "[8]; rifaximin 8 mg/L for 4 hours", "result": "detectable"},
      {"measurement": "EAEC adherence to HeLa cells", "setting": "[9]", "result": "significantly reduced"},
      {"measurement": "EAEC adherence to HCT-8 cells", "setting": "[10]", "result": "Slightly fewer bacteria adhered to rifaximin-pretreated HCT-8 cells, but this difference was not significant"}
    ]}
  ]
}
